Here are results for 31 compounds from patent publication US11578061B2, “Inhibitors of LRRK2 kinase” (Halia Therapeutics, Inc., priority 2021, dated 2023).

In the assay the target is recombinant human LRRK2 (catalytic domain only [amino acids 970-2527], GST-tagged) (Homo sapiens (Human), UniProt Q5S007). Description: LRRK2 Enzymatic Assay. Type of assay: biochemical. The note with it: LRRKtide substrate, [32P]-ATP. The gist of the method: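 Radiometric P81 filter-binding read-out of [32P]-ATP transfer to LRRKtide (20 μM) by 30 nM GST-LRRK2 970-2527, 2 h at room temperature after 20 min compound preincubation (10 μM–0.5 nM, 1% DMSO). IC50 derived from % remaining activity versus DMSO.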

Each structure is given as a SMILES string. pIC50: −log10 of the molar value.

Sequence of recombinant human LRRK2 (catalytic domain only [amino acids 970-2527], GST-tagged) (Q5S007 970-2527): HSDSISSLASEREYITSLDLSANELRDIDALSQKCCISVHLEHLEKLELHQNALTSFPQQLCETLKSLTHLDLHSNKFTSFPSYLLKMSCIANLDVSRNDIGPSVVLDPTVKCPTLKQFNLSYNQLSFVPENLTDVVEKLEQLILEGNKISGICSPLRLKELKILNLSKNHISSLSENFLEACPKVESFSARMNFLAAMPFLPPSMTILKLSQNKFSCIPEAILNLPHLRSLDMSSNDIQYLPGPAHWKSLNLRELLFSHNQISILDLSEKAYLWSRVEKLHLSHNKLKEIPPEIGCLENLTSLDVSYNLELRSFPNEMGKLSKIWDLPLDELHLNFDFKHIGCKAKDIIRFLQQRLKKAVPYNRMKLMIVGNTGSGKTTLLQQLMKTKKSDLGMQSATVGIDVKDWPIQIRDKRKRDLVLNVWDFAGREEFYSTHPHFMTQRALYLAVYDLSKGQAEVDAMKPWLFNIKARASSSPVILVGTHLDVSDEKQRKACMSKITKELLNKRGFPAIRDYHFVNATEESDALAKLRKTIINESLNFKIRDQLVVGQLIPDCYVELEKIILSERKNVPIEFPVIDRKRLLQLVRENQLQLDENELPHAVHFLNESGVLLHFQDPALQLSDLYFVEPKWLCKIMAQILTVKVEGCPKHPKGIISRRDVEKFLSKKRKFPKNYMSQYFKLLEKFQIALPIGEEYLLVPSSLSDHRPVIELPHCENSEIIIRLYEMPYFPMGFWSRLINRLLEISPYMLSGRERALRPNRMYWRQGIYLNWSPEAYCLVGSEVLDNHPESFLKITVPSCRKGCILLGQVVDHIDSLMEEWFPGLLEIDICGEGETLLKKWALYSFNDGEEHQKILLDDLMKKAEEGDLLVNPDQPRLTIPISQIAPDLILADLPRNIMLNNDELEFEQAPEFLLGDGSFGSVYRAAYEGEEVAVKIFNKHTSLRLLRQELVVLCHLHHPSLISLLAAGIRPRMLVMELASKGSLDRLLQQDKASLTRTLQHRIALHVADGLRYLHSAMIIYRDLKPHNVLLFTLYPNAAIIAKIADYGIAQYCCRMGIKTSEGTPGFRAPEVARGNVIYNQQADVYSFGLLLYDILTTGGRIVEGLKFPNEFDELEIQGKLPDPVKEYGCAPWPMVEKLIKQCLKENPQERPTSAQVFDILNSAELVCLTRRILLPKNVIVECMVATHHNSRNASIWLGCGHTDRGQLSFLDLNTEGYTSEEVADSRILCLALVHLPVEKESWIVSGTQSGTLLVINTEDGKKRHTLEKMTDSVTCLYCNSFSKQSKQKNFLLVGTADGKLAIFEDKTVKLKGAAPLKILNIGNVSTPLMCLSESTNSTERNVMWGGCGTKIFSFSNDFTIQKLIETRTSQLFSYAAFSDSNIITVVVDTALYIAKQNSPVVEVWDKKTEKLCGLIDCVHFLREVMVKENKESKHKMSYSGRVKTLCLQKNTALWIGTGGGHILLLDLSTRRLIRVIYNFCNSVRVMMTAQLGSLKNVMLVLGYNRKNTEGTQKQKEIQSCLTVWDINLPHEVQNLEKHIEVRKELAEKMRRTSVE

Take `Cc1nn(C(C)(C)C#N)cc1Nc1ncc(Cl)c(OC[C@H]2CC[C@H](NC(=O)C(F)F)CC2)n1` [Example 100, N-((1R,4R)-4-(((5-chloro-2-((1-(2-cyano-propan-2-yl)-3-methyl-1H-pyrazol-4-yl)amino)pyrimidin-4-yl)oxy)methyl)cyclohexyl)-2,2-difluoro-acetamide]: the negative logarithm of the IC50 (pIC50) was greater than 7.30. For `CCn1cc(Nc2ncc(F)c(OC[C@H]3CC[C@H](NC(C)=O)CC3)n2)cn1` [Example 184, N-((1R,4R)-4-(((2-((1-ethyl-1H-pyrazol-4-yl)amino)-5-fluoropyrimidin-4-yl)oxy)methyl)cyclo-hexyl)acetamide], the pIC50 was greater than 7.30.

Turning to `COC1CCC(COc2ccnc(Nc3cn(C(C)(C)C#N)nc3C)n2)CC1` (stereo not shown) [Example 162, 2-(4-((4-((4-methoxycyclohexyl)methoxy)pyrimidin-2-yl)amino)-3-methyl-1H-pyrazol-1-yl)-2-methylpropanenitrile], the negative-log IC50 (pIC50) is 6.40 to 6.70. The same measure for `Cc1nn(C(C)(C)C#N)cc1Nc1ncc(F)c(OCC2CC(C#N)C2)n1` (single isomer, unassigned) [Example 290, 3-(((2-((1-(2-cyanopropan-2-yl)-3-methyl-1H-pyrazol-4-yl)amino)-5-fluoropyrimidin-4-yl)oxy)methyl)cyclobutane-1-carbonitrile]: greater than 7.30; for `CC(=O)N1CCC(COc2nc(Nc3cn(C(C)(C)C#N)nc3C)ncc2F)C(F)C1` (single isomer, unassigned) [Example 177, 2-(4-((4-((1-acetyl-3-fluoropiperidin-4-yl)methoxy)-5-fluoropyrimidin-2-yl)amino)-3-methyl-1H-pyrazol-1-yl)-2-methylpropanenitrile]: less than 6.40; for `CC(=O)N[C@H]1CC[C@H](COc2nc(Nc3cn(C(C)C)nc3C)ncc2F)CC1` [Example 195, N-((1R,4R)-4-(((5-fluoro-2-((1-isopropyl-3-methyl-1H-pyrazol-4-yl)amino)pyrimidin-4-yl)oxy)methyl)cyclo-hexyl)acetamide]: greater than 7.30. In the case of `CN[C@H]1CC[C@@H](COc2nc(Nc3cn(C4CC(C#N)C4)nc3C)ncc2Cl)C1` (stereo partly drawn) [Example 53, 3-(4-((5-chloro-4-(((1R,3S)-3-(methylamino)cyclo-pentyl)methoxy)py-rimidin-2-yl)amino)-3-methyl-1H-pyrazol-1-yl)cyclobutane-1-carbonitrile] it was greater than 7.30; in that of `CNC1(COc2nc(Nc3ccc(N4CCOCC4)cc3)ncc2Cl)CC1` [Example 54, 5-chloro-4-((1-(methylamino)cyclo-propyl)methoxy)-N-(4-morpholinophenyl)py-rimidin-2-amine], 6.40 to 6.70; in that of `CC(C)OC1CCC(COc2nc(Nc3ccc(N4CCOCC4)cc3)ncc2F)CC1` (racemic) [Example 278, 5-fluoro-4-((4-isopropoxycyclohexyl)methoxy)-N-(4-morpholinophenyl)pyrimidin-2-amine], 6.70 to 7.30.

Turning to `COCCn1ncc(Nc2ncc(F)c(OC[C@H]3CC[C@H](NC(C)=O)CC3)n2)c1Cl` [Example 205, N-((1R,4R)-4-(((2-((5-chloro-1-(2-methoxyethyl)-1H-pyrazol-4-yl)amino)-5-fluoropyrimidin-4-yl)oxy)methyl)cyclo-hexyl)acetamide], the pIC50 was greater than 7.30.

In the case of `FC(F)CN1CCC(COc2nc(Nc3ccc(N4CCOCC4)cc3)ncc2Cl)CC1` [Example 113, 5-chloro-4-((1-(2,2-difluoroethyl)piperidin-4-yl)methoxy)-N-(4-morpholino-phenyl) pyrimidin-2-amine], the pIC50 is greater than 7.30. In the case of `Cc1nn(C(C)(C)C#N)cc1Nc1ncc(Cl)c(OCC2(F)CCNCC2)n1` [Example 20, 2-(4-((5-chloro-4-((4-fluoropiperidin-4-yl)methoxy)pyrimidin-2-yl)amino)-3-methyl-1H-pyrazol-1-yl)-2-methylpropanenitrile] it was greater than 7.30. In the case of `C[C@@H]1CN(c2ccc(Nc3ncc(F)c(OCC4CCC(F)(F)C4)n3)cc2)C[C@H](C)O1` (stereo partly drawn) [Example 271, 4-((3,3-difluorocyclopentyl)methoxy)-N-(4-((2S,6R)-2,6-dimethylmorpholino)phenyl)-5-fluoropyrimidin-2-amine] it was 6.70 to 7.30. In the case of `Cc1nn(C(C)C)cc1Nc1ncc(F)c(OC[C@H]2CC[C@H](NC(=O)C(F)(F)F)CC2)n1` [Example 211, 2,2,2-trifluoro-N-((1R,4R)-4-(((5-fluoro-2-((1-isopropyl-3-methyl-1H-pyrazol-4-yl)amino)pyrimidin-4-yl)oxy)methyl)cyclohexyl) acetamide], the pIC50 was greater than 7.30. Turning to `Fc1cnc(Nc2ccc(N3CCOCC3)cc2)nc1OCC1CCC(OC(F)(F)F)CC1` (single isomer, unassigned) [Example 282, 5-fluoro-N-(4-morpholinophenyl)-4-((4-(trifluoromethoxy)cyclohexyl)methoxy)pyrimidin-2-amine], the pIC50 is less than 6.40. On to `Cc1nn(C(C)(C)C#N)cc1Nc1nccc(OCC2CCC(O)C2)n1` (stereo not shown) [Example 130, 2-(4-((4-((3-hydroxycyclopentyl)methoxy)pyrimidin-2-yl)amino)-3-methyl-1H-pyrazol-1-yl)-2-methylpropanenitrile], for which the pIC50 was 6.70 to 7.30. As to `OCCn1ncc(Nc2ncc(F)c(OC[C@H]3CC[C@H](O)CC3)n2)c1Cl` [Example 240, (1R,4R)-4-(((2-((5-chloro-1-(2-hydroxyethyl)-1H-pyrazol-4-yl)amino)-5-fluoropyrimidin-4-yl)oxy)methyl)cyclohexan-1-ol], the negative logarithm of the IC50 (pIC50) was 6.70 to 7.30.

Turning to `Cc1nn(C2CC(C#N)C2)cc1Nc1ncc(Cl)c(OCC2CCOC(C)(C)C2)n1` (stereo not shown) [Example 150, 3-(4-((5-chloro-4-((2,2-dimethyltetrahydro-2H-pyran-4-yl)methoxy)pyrimidin-2-yl)amino)-3-methyl-1H-pyrazol-1-yl)cyclobutane-1-carbonitrile], the pIC50 is 6.70 to 7.30. In the case of `CN[C@H]1CC[C@H](COc2nc(Nc3ccc(N4CCOCC4)cc3)ncc2C2CC2)CC1` [Example 45, 5-cyclopropyl-4-(((1R,4R)-4-(methylamino)cyclo-hexyl)methoxy)-N-(4-morpholinophenyl) pyrimidin-2-amine] it was 6.70 to 7.30; in that of `CC(=O)N[C@H]1CC[C@H](COc2nc(Nc3cn(C(C)(C)C#N)nc3C)ncc2F)CC1` [Example 84, N-((1R,4R)-4-(((2-((1-(2-cyanopropan-2-yl)-3-methyl-1H-pyrazol-4-yl)amino)-5-fluoropyrimidin-4-yl)oxy)methyl)cyclo-hexyl)acetamide], greater than 7.30. On to `CC(=O)N[C@H]1CC[C@H](COc2ccnc(Nc3cn(C(C)(C)C#N)nc3C)n2)CC1` [Example 74, N-((1R,4R)-4-(((2-((1-(2-cyanopropan-2-yl)-3-methyl-1H-pyrazol-4-yl)amino)pyrimidin-4-yl)oxy)methyl)cyclo-hexyl)acetamide], for which the negative logarithm of the IC50 (pIC50) is 6.70 to 7.30. The same measure for `C[C@@H]1CN(c2ccc(Nc3nccc(OCC4CCC(CO)CC4)n3)cc2)C[C@H](C)O1` (stereo partly drawn) [Example 141, (4-(((2-((4-((2R,6S)-2,6-dimethylmorpholino)phenyl)amino)pyrimidin-4-yl)oxy)methyl)cyclohexyl)methanol]: 6.70 to 7.30; for `Cc1nn(C(C)(C)C#N)cc1Nc1nc(C)c(F)c(OC[C@H]2CC[C@H](O)CC2)n1` [Example 267, 2-(4-((5-fluoro-4-(((1R,4R)-4-hydroxycyclohexyl)methoxy)-6-methylpyrimidin-2-yl)amino)-3-methyl-1H-pyrazol-1-yl)-2-methylpropanenitrile]: less than 6.40. Turning to `O=C(N[C@H]1CC[C@H](COc2nc(Nc3cccc(N4CCOCC4)c3)ncc2Cl)CC1)C(F)F` [Example 101, N-((1R,4R)-4-(((5-chloro-2-((3-morpholino-phenyl)amino)pyrimidin-4-yl)oxy)methyl)cyclohexyl)-2,2-difluoro-acetamide], the pIC50 is greater than 7.30. The same measure for `C[C@@H]1CN(c2ccc(Nc3ncc(F)c(OCC4(F)CCN(C)CC4)n3)cc2)C[C@H](C)O1` [Example 65, N-(4-((2R,6S)-2,6-dimethylmorpholino)phenyl)-5-fluoro-4-((4-fluoro-1-methylpiperidin-4-yl)methoxy)pyrimidin-2-amine]: 6.70 to 7.30; for `CC(=O)N[C@H]1CC[C@H](COc2ccnc(Nc3cnn(C(C)C)c3)n2)CC1` [Example 76, N-((1R,4R)-4-(((2-((1-isopropyl-1H-pyrazol-4-yl)amino)pyrimidin-4-yl)oxy)methyl)cyclo-hexyl)acetamide]: 6.70 to 7.30. Take `C[C@@H]1CN(c2ccc(Nc3nccc(OCC45CCC(O)(CC4)CC5)n3)cc2)C[C@H](C)O1` [Example 142, 4-(((2-((4-((2S,6R)-2,6-dimethylmorpholino)phenyl)amino)pyrimidin-4-yl)oxy)methyl)bicyclo[2.2.2]octan-1-ol]: the pIC50 was less than 6.40. As for `C[C@@H]1CN(c2ccc(Nc3ncc(F)c(OCC4CCNCC4F)n3)cc2)C[C@H](C)O1` (single isomer, unassigned) [Example 168], the negative-log IC50 (pIC50) is 6.70 to 7.30.

For the compound `CN[C@H]1CC[C@H](COc2nc(Nc3ccc(N4CCOCC4)cc3)ncc2F)CC1` [Example 42, 5-fluoro-4-(((1R,4R)-4-(methylamino)cyclo-hexyl)methoxy)-N-(4-morpholinophenyl) pyrimidin-2-amine], the pIC50 is greater than 7.30. In the case of `O=C(N1CCC(COc2nc(Nc3ccc(N4CCOCC4)cc3)ncc2Cl)CC1)C(F)(F)F` [Example 112, 1-(4-(((5-chloro-2-((4-morpholino-phenyl)amino)pyrimidin-4-yl)oxy)methyl)piperidin-1-yl)-2,2,2-trifluoro-ethan-1-one], the negative-log IC50 (pIC50) is 6.70 to 7.30.

In the case of `Cc1c(Nc2ncc(F)c(OC[C@H]3CC[C@H](O)CC3)n2)cnn1C(F)F` [Example 235, (1R,4R)-4-(((2-((1-(difluoromethyl)-5-methyl-1H-pyrazol-4-yl)amino)-5-fluoropyrimidin-4-yl)oxy)methyl)cyclohexan-1-ol], the negative-log IC50 (pIC50) is 6.70 to 7.30.

The term pIC50 denotes the IC50 on a negative log10 scale, so that one unit is a factor of ten.
